Reference: patent publication US20240018115A1, “ALLOSTERIC CHROMENONE INHIBITORS OF PHOSPHOINOSITIDE 3-KINASE (PI3K) FOR THE TREATMENT OF DISEASE” (Petra Pharma Corporation, priority 2022, published 2024)

Biological target: T1, PI3K-Alpha kinase H1047R mutant (Homo sapiens, UniProt P42336, H1047R)
T1 construct: host or cells: MDA-MB-453
Test: PI3K-Alpha Kinase (PIK3CA) Activity, H1047R Mutant In Vitro Cell Based Assay (MDA-MB-453 cells, AlphaLisa SureFire Ultra)
Details: 0% FBS, 3 hours treatment, relative IC50
Experimental: PI3K-Alpha Kinase (PIK3CA) Activity, H1047R Mutant In Vitro Cell Based Assay and Determining IC50 Values for Inhibitors
The MDA-MB-453 (ATCC-HTB-131) cell line was obtained from the American Type Culture Collection (Manassas, VA). Cells were maintained in Dulbecco's Modified Eagle Media (DMEM, Gibco 11965-092) supplemented with 10% Fetal Bovine Serum, heat inactivated (FBS HI, Gibco 10082-147), 1× non-essential amino acids (NEAA, Gibco 11140-050), and 1 mM sodium pyruvate (Gibco 11360-070). Cultures were maintained in a humidified incubator at 37° C. under 5% CO2/95% air.
For compound testing in 0% FBS, MDA-MB-453 cells were seeded at a density of 1.5×10^4 cells per well in white 384-well plates in 20 μl of Minimum Essential Media (MEM) assay media with 1×NEAA, 1 mM sodium pyruvate, and 1 μg/mL human insulin (Sigma I9278). Compounds dissolved in 10 mM stock solutions in DMSO were serially diluted 1:3 in DMSO to generate a 10-point dilution series and plated using an acoustic liquid handler system (Echo 550 Series Liquid Handler, Labcyte). A 5× intermediate compound dilution plate in MEM with 1×NEAA and 1 mM sodium pyruvate (150 μM starting compound concentration in 1.5% DMSO) was then prepared. Five μl of the intermediate serially diluted compounds were added to the cell plate to final concentrations ranging from […] in 0.3% DMSO. 0.3% DMSO alone was used to establish the maximum (MAX) signal and GDC-0032 at a final concentration of 1 μM was used as a reference compound for the minimum (MIN) signal. After 3 hours treatment, the medium was removed, and the cells lysed in 10 μL of 1× SureFire Lysis buffer with shaking for 10 minutes at room temperature. The Acceptor Mix (Reaction Buffer 1+Reaction Buffer 2+Activation Buffer+SureFire Ultra Acceptor Beads) was prepared by diluting Activation buffer 25-fold in combined Reaction Buffer 1 and Reaction Buffer 2. The Acceptor beads were diluted 50-fold in the combined Reaction Buffers. Five μL of Acceptor Mix was added to each well, the plate was sealed and covered with foil and incubated for 1 hour at room temperature. The Donor Mix (dilution buffer+SureFire Ultra Donor Beads) was prepared by diluting Donor Beads 50-fold in dilution buffer. Five μL of the Donor Mix was added to each well and the plate sealed and covered with foil and incubated for 1 hour at room temperature in the dark. The plates were read on a Neo2 plate reader instrument from Biotek using standard AlphaLisa settings. Compounds were tested in duplicate and the average % inhibition at each compound concentration was used to generate a single dose response curve. The data were processed using the Genedata-Screener tool. Relative IC50 values were determined using luminescence units by calculating percent inhibition with respect to the in-plate “MIN” (GDC-0032 reference control) and “MAX” (DMSO) controls. The data was analyzed using a 4-parameter nonlinear logistic equation (four-parameter logistic concentration-response curve):
Y=bottom+[(top−bottom)/1+(X/IC50)slope]
where Y=% inhibition, X=concentration of inhibitor, bottom=minimum value of y attained by curve-fit, top=maximum value of y attained by curve-fit and slope=steepness of curve at the IC50.
% Inhibition=[(signal at X−median Min)/(median Max−median Min)]×100
IC50: concentration of compound that reduces a given response (ligand binding, enzyme response) by 50%. Relative IC50: concentration giving half the compound's maximum response.

T1 sequence (P42336 whole entry H1047R): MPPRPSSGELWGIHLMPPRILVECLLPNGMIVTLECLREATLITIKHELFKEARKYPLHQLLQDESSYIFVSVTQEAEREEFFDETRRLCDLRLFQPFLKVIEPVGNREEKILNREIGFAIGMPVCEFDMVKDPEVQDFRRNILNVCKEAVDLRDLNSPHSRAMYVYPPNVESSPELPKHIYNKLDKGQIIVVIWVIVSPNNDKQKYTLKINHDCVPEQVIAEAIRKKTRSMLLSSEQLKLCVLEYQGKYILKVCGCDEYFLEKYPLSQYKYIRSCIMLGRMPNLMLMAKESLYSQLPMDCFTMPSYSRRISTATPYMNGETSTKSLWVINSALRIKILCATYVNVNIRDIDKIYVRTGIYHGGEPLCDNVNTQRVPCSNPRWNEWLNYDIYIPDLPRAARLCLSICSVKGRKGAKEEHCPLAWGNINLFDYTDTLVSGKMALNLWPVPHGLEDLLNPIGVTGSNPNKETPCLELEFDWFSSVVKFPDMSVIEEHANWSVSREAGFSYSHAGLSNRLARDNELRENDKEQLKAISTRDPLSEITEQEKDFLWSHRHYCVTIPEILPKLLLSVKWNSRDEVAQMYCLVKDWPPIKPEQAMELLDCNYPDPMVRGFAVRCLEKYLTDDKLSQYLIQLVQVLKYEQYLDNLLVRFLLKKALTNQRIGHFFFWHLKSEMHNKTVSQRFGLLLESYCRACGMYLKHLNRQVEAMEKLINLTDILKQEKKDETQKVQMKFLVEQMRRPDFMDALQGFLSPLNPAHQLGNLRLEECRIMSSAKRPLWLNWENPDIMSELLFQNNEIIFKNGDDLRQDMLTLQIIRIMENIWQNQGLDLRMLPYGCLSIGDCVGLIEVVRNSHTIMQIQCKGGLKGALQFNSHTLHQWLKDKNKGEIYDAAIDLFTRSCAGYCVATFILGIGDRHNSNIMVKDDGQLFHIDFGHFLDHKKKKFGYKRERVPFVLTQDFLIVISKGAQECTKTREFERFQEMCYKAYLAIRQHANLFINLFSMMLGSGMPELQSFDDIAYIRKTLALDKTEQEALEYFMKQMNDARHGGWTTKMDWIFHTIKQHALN
T1 sequence (P27986 whole entry partner): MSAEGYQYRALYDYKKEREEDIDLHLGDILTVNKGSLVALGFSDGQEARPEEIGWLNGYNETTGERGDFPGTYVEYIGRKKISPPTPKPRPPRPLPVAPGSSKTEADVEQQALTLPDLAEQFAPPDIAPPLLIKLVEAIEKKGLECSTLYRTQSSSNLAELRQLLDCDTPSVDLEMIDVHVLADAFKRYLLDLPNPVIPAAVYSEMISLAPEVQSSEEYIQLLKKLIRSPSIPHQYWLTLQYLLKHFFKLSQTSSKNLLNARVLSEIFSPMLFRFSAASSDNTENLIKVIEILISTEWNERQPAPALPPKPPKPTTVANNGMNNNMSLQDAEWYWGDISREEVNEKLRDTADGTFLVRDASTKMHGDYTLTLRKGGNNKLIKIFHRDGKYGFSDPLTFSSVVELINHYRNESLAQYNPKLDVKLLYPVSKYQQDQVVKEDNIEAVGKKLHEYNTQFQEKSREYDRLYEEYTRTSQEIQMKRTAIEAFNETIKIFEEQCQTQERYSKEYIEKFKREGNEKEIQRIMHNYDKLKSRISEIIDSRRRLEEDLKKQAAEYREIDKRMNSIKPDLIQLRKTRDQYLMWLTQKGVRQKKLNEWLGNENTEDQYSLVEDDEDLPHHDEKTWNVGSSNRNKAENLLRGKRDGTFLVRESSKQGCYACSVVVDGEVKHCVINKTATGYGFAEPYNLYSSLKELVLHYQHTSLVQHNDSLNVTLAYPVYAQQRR

Row | IC50 [µM] | SMILES
1 | < 0.5 | CONS(=O)(=O)c1ccccc1N[C@H](C)c1cc(C)cc2c(=O)c(C)c(-c3ccccc3)oc12 [Example 129C, 2-[[(1R)-1-(3,6-Dimethyl-4-oxo-2-phenyl-chromen-8-yl)ethyl]amino]-N-methoxy-benzenesulfonamide]
2 | < 0.5 | Cc1cc([C@@H](C)Nc2ccc(Cl)nc2)c2oc(-c3ccc(CN(C)C)cc3)c(C)c(=O)c2c1 [Example 22B, 8-[(1R)-1-[(6-Chloro-3-pyridyl)amino]ethyl]-2-[4-[(dimethylamino)methy1]phenyl]-3,6-dimethyl-chromen-4-one]
